In the assay the test system is MV-4-11 cells. Description: Gene expression microarray analysis (Affymetrix PrimeView) and GSEA. Type of assay: cell-based, human. On the set-up: RFU PODN (11730768_x_at) / Fold change /veh PODN (11730768_x_at) / RFU LINC00158 (11744669_a_at) / Fold change /veh LINC00158 (11744669_a_at) / RFU DUSP10 (11751237_a_at) / Fold change /veh DUSP10 (11751237_a_at) / RFU ID3 (11757404_x_at) / Fold change /veh ID3 (11757404_x_at) / RFU PLEKHG5 (11737974_s_at) / Fold change /veh PLEKHG5 (11737974_s_at) / RFU LRRC4B (11730491_at) / Fold change /veh LRRC4B (11730491_at) / RFU GIMAP4 (11747438_a_at) / Fold change /veh GIMAP4 (11747438_a_at) / RFU KRT8 (11758183_x_at) / Fold change /veh KRT8 (11758183_x_at) / RFU CNN1 (11734310_a_at) / Fold change /veh CNN1 (11734310_a_at) / RFU VPS37D (11726825_at) / Fold change /veh VPS37D (11726825_at) / RFU C10orf10 (11716522_x_at) / Fold change /veh C10orf10 (11716522_x_at) / RFU KIR2DL2 /// KIR2DL4 /// KIR2DL5A /// KIR2DL5B /// KIR2DS1 /// KIR2DS2 /// KIR2DS3 /// KIR2DS4 /// KIR3DL3 /// KIR3DL3 /// KIR3DS1 (11738374_at) / Fold change /veh KIR2DL2 /// KIR2DL4 /// KIR2DL5A /// KIR2DL5B /// KIR2DS1 /// KIR2DS2 /// KIR2DS3 /// KIR2DS4 /// KIR3DL3 /// KIR3DL3 /// KIR3DS1 (11738374_at) / RFU C1QL1 (11718748_at) / Fold change /veh C1QL1 (11718748_at) / RFU TMPRSS4 (11747572_a_at) / Fold change /veh TMPRSS4 (11747572_a_at) / RFU HAMP (11756126_x_at) / Fold change /veh HAMP (11756126_x_at) / RFU RNFT2 (11725882_a_at) / Fold change /veh RNFT2 (11725882_a_at) / RFU NR4A2 (11747474_a_at) / Fold change /veh NR4A2 (11747474_a_at) / RFU ABCC12 (11746883_a_at) / Fold change /veh ABCC12 (11746883_a_at) / RFU TMEM136 (11760407_x_at) / Fold change /veh TMEM136 (11760407_x_at) / RFU CLDN22 /// WWC2 (11732394_at) / Fold change /veh CLDN22 /// WWC2 (11732394_at) / RFU HLA-DPB1 (11760878_x_at) / Fold change /veh HLA-DPB1 (11760878_x_at) / RFU SPINT1 (11716480_a_at) / Fold change /veh SPINT1 (11716480_a_at) / RFU GAP43 (11754022_s_at) / Fold change /veh GAP43 (11754022_s_at) / RFU A4GNT (11735810_at) / Fold change /veh A4GNT (11735810_at) / RFU PRB3 (11715151_x_at) / Fold change /veh PRB3 (11715151_x_at) / RFU TUBB4B (11761932_at) / Fold change /veh TUBB4B (11761932_at) / RFU CAPN14 (11732068_a_at) / Fold change /veh CAPN14 (11732068_a_at) / RFU TMCC2 (11721928_a_at) / Fold change /veh TMCC2 (11721928_a_at) / RFU IRGQ (11745062_a_at) / Fold change /veh IRGQ (11745062_a_at) / RFU FAM174B (11720279_a_at) / Fold change /veh FAM174B (11720279_a_at) / RFU TMPRSS4 (11748680_a_at) / Fold change /veh TMPRSS4 (11748680_a_at) / RFU FAM212B (11763350_a_at) / Fold change /veh FAM212B (11763350_a_at) / RFU PLEKHG5 (11743358_a_at) / Fold change /veh PLEKHG5 (11743358_a_at) / RFU ZSCAN30 (11745921_a_at) / Fold change /veh ZSCAN30 (11745921_a_at) / RFU CMKLR1 (11741424_a_at) / Fold change /veh CMKLR1 (11741424_a_at) / RFU LOC101060620 /// MAPK8IP1 (11723275_at) / Fold change /veh LOC101060620 /// MAPK8IP1 (11723275_at) / RFU SPTSSB (11747773_x_at) / Fold change /veh SPTSSB (11747773_x_at) / RFU PRSS12 (11739890_at) / Fold change /veh PRSS12 (11739890_at) / RFU BIN1 (11741810_x_at) / Fold change /veh BIN1 (11741810_x_at) / RFU WNT11 (11732464_a_at) / Fold change /veh WNT11 (11732464_a_at) / RFU C10orf10 (11716521_a_at) / Fold change /veh C10orf10 (11716521_a_at) / RFU C5orf56 (11738089_at) / Fold change /veh C5orf56 (11738089_at) / RFU CYB561 (11721691_x_at) / Fold change /veh CYB561 (11721691_x_at) / RFU ANKRD19P (11752326_a_at) / Fold change /veh ANKRD19P (11752326_a_at) / RFU OR2T12 /// OR2T33 /// OR2T8 (11738714_s_at) / Fold change /veh OR2T12 /// OR2T33 /// OR2T8 (11738714_s_at) / RFU VCAN (11748164_a_at) / Fold change /veh VCAN (11748164_a_at) / RFU JSRP1 (11732532_at) / Fold change /veh JSRP1 (11732532_at) / RFU KRTAP10-11 (11738290_x_at) / Fold change /veh KRTAP10-11 (11738290_x_at) / RFU MYO3A (11730013_a_at) / Fold change /veh MYO3A (11730013_a_at) / RFU EBF3 (11725865_a_at) / Fold change /veh EBF3 (11725865_a_at) / RFU CAMK2N1 (11719241_x_at) / Fold change /veh CAMK2N1 (11719241_x_at) / RFU C5orf56 (11738088_a_at) / Fold change /veh C5orf56 (11738088_a_at) / RFU OLFML3 (11715873_a_at) / Fold change /veh OLFML3 (11715873_a_at) / RFU LOC100653217 /// NTM (11731650_a_at) / Fold change /veh LOC100653217 /// NTM (11731650_a_at) / RFU MAPK11 (11762145_a_at) / Fold change /veh MAPK11 (11762145_a_at) / RFU FIZ1 (11724087_x_at) / Fold change /veh FIZ1 (11724087_x_at) / RFU OASL (11726364_x_at) / Fold change /veh OASL (11726364_x_at) / RFU SOX15 (11748057_x_at) / Fold change /veh SOX15 (11748057_x_at) / RFU CD79A (11719716_a_at) / Fold change /veh CD79A (11719716_a_at) / RFU HIST1H1D (11736915_at) / Fold change /veh HIST1H1D (11736915_at) / RFU CASKIN2 (11723855_a_at) / Fold change /veh CASKIN2 (11723855_a_at) / RFU LOC730098 (11760151_x_at) / Fold change /veh LOC730098 (11760151_x_at) / RFU OR4N2 (11742367_at) / Fold change /veh OR4N2 (11742367_at) / RFU PRRT2 (11749266_a_at) / Fold change /veh PRRT2 (11749266_a_at) / RFU SNX32 (11753110_a_at) / Fold change /veh SNX32 (11753110_a_at) / RFU CDHR5 (11726645_a_at) / Fold change /veh CDHR5 (11726645_a_at) / RFU RCAN1 (11760418_a_at) / Fold change /veh RCAN1 (11760418_a_at) / RFU FAM167A (11723789_a_at) / Fold change /veh FAM167A (11723789_a_at) / RFU FAM26E (11764081_at) / Fold change /veh FAM26E (11764081_at) / RFU ISYNA1 (11749810_s_at) / Fold change /veh ISYNA1 (11749810_s_at) / RFU ACY1 (11761880_at) / Fold change /veh ACY1 (11761880_at) / RFU 11764098_at / Fold change /veh 11764098_at / RFU SAMD14 (11745864_x_at) / Fold change /veh SAMD14 (11745864_x_at) / RFU NPB (11741838_a_at) / Fold change /veh NPB (11741838_a_at) / RFU TMPRSS6 (11731388_a_at) / Fold change /veh TMPRSS6 (11731388_a_at) / RFU KRTAP10-2 (11738614_at) / Fold change /veh KRTAP10-2 (11738614_at) / RFU ARHGAP8 /// PRR5-ARHGAP8 (11727945_x_at) / Fold change /veh ARHGAP8 /// PRR5-ARHGAP8 (11727945_x_at) / RFU KRTAP5-7 /// NADSYN1 (11734609_at) / Fold change /veh KRTAP5-7 /// NADSYN1 (11734609_at) / RFU RASL12 (11751679_a_at) / Fold change /veh RASL12 (11751679_a_at) / RFU CDKN2B (11736163_a_at) / Fold change /veh CDKN2B (11736163_a_at) / RFU PRF1 (11729649_at) / Fold change /veh PRF1 (11729649_at) / RFU, ZNF638 /// ZNF638-IT1 / Fold change vs veh, ZNF638 /// ZNF638-IT1 / RFU, PANK3 / Fold change vs veh, PANK3 / RFU, SH3YL1 / Fold change vs veh, SH3YL1 / RFU, ZEB2 / Fold change vs veh, ZEB2 / RFU, NRIP1 / Fold change vs veh, NRIP1 / RFU, PTTG1IP / Fold change vs veh, PTTG1IP / RFU, CAPN2 / Fold change vs veh, CAPN2 / RFU, MED14 / Fold change vs veh, MED14 / RFU, SNORA58 / Fold change vs veh, SNORA58 / RFU, C1orf63 / Fold change vs veh, C1orf63 / RFU, LRRFIP1 / Fold change vs veh, LRRFIP1 / RFU, NDUFAF7 / Fold change vs veh, NDUFAF7 / RFU, SLC12A2 / Fold change vs veh, SLC12A2 / RFU, IBTK / Fold change vs veh, IBTK / RFU, ESF1 / Fold change vs veh, ESF1 / Fold change vs veh, TMEM50B / RFU, TAOK1 / Fold change vs veh, TAOK1 / RFU, ACBD3 / Fold change vs veh, ACBD3 / RFU, TMA16 / Fold change vs veh, TMA16 / RFU, RWDD3 / Fold change vs veh, RWDD3 / RFU, BCAT1 / Fold change vs veh, BCAT1 / RFU, EDEM3 / Fold change vs veh, EDEM3 / RFU, TMEM33 / Fold change vs veh, TMEM33 / RFU, WDR75 / Fold change vs veh, WDR75 / RFU, AHCTF1 / Fold change vs veh, AHCTF1 / RFU, TFRC / Fold change vs veh, TFRC / RFU, ZDHHC17 / Fold change vs veh, ZDHHC17 / RFU, NOM1 / Fold change vs veh, NOM1 / RFU, ARL8B / Fold change vs veh, ARL8B / RFU, ZBTB11 / Fold change vs veh, ZBTB11 / RFU, TAMM41 / Fold change vs veh, TAMM41 / RFU, KIAA1704 /// LOC100996395 / Fold change vs veh, KIAA1704 /// LOC100996395 / RFU, ING1 / Fold change vs veh, ING1 / RFU, TRMT61B / Fold change vs veh, TRMT61B / RFU, FUBP3 / Fold change vs veh, FUBP3 / RFU, TP53 / Fold change vs veh, TP53 / RFU, TNKS2 / Fold change vs veh, TNKS2 / RFU, ZFP14 / Fold change vs veh, ZFP14 / RFU, ACTR2 / Fold change vs veh, ACTR2 / RFU, PPP3R1 / Fold change vs veh, PPP3R1 / RFU, PIK3R1 / Fold change vs veh, PIK3R1 / RFU, HNRNPA1 / Fold change vs veh, HNRNPA1 / RFU, RNF170 / Fold change vs veh, RNF170 / RFU, ZNF28 / Fold change vs veh, ZNF28 / RFU, RNGTT / Fold change vs veh, RNGTT / RFU, OGT / Fold change vs veh, OGT / RFU, BRD1 / Fold change vs veh, BRD1 / RFU, MARS / Fold change vs veh, MARS / RFU, ZNF655 / Fold change vs veh, ZNF655 / RFU, FAHD1 / Fold change vs veh, FAHD1 / RFU, BDP1 / Fold change vs veh, BDP1 / RFU, LRRCC1 / Fold change vs veh, LRRCC1 / RFU, ARID1A / Fold change vs veh, ARID1A / RFU, ZNF146 / Fold change vs veh, ZNF146 / RFU, ZNF330 / Fold change vs veh, ZNF330 / RFU, GPN3 / Fold change vs veh, GPN3 / RFU, C9orf123 / Fold change vs veh, C9orf123 / RFU, N4BP2L2 / Fold change vs veh, N4BP2L2 / RFU, ARFIP1 / Fold change vs veh, ARFIP1 / RFU, FAM179B / Fold change vs veh, FAM179B / RFU, BCL10 / Fold change vs veh, BCL10 / RFU, UHRF1BP1L / Fold change vs veh, UHRF1BP1L / RFU, BET1 / Fold change vs veh, BET1 / RFU, CNOT2 / Fold change vs veh, CNOT2 / RFU, ZNF268 / Fold change vs veh, ZNF268 / Fold change vs veh, ZNF507 / RFU, DGCR2 / Fold change vs veh, DGCR2 / RFU, WDSUB1 / Fold change vs veh, WDSUB1 / Fold change vs veh, HSP90B1 /// MIR3652 / RFU, ADSS / Fold change vs veh, ADSS / RFU, GK / Fold change vs veh, GK / RFU, ZNF148 / Fold change vs veh, ZNF148 / RFU, TAF9 / Fold change vs veh, TAF9 / RFU, SLC1A5 / Fold change vs veh, SLC1A5 / RFU, SLMO2 / Fold change vs veh, SLMO2 / RFU, ABCC4 / Fold change vs veh, ABCC4 / RFU, LOC101060439 /// RAP1B / Fold change vs veh, LOC101060439 /// RAP1B / RFU, RFX7 / Fold change vs veh, RFX7 / RFU, GTPBP10 / Fold change vs veh, GTPBP10 / RFU, CNEP1R1 / Fold change vs veh, CNEP1R1 / RFU, BIVM-ERCC5 /// ERCC5 / Fold change vs veh, BIVM-ERCC5 /// ERCC5 / RFU, ILF3 / Fold change vs veh, ILF3 / RFU 11762660_at / Fold change /veh 11762660_at / RFU VCAN (11757783_s_at) / Fold change /veh VCAN (11757783_s_at) / RFU DDX43 (11728927_at) / Fold change /veh DDX43 (11728927_at) / RFU KRT8 (11758188_x_at) / Fold change /veh KRT8 (11758188_x_at) / RFU NKD1 (11759106_at) / Fold change /veh NKD1 (11759106_at) / RFU SRD5A1 (11742802_a_at) / Fold change /veh SRD5A1 (11742802_a_at) / RFU TPSAB1 /// TPSB2 (11721975_s_at) / Fold change /veh TPSAB1 /// TPSB2 (11721975_s_at) / RFU GSTM3 (11746129_a_at) / Fold change /veh GSTM3 (11746129_a_at) / RFU IL23R (11737362_x_at) / Fold change /veh IL23R (11737362_x_at) / RFU TMEM51 (11727254_a_at) / Fold change /veh TMEM51 (11727254_a_at) / RFU PIWIL2 (11732686_x_at) / Fold change /veh PIWIL2 (11732686_x_at) / RFU ORM1 (11744905_x_at) / Fold change /veh ORM1 (11744905_x_at) / RFU CCDC152 (11743942_at) / Fold change /veh CCDC152 (11743942_at) / RFU ECM1 (11717891_a_at) / Fold change /veh ECM1 (11717891_a_at) / RFU IL23R (11748794_a_at) / Fold change /veh IL23R (11748794_a_at) / RFU TNFAIP8L3 (11732012_x_at) / Fold change /veh TNFAIP8L3 (11732012_x_at) / RFU MBOAT4 (11741988_at) / Fold change /veh MBOAT4 (11741988_at) / RFU 11764193_at / Fold change /veh 11764193_at / RFU TMEM53 (11763286_at) / Fold change /veh TMEM53 (11763286_at) / RFU MAGEB2 (11727129_at) / Fold change /veh MAGEB2 (11727129_at) / RFU TMEM200A (11744735_a_at) / Fold change /veh TMEM200A (11744735_a_at) / RFU CCDC152 (11751479_a_at) / Fold change /veh CCDC152 (11751479_a_at) / RFU FAM211A (11726209_a_at) / Fold change /veh FAM211A (11726209_a_at) / RFU RGS16 (11746705_a_at) / Fold change /veh RGS16 (11746705_a_at) / RFU VCAN (11755009_s_at) / Fold change /veh VCAN (11755009_s_at) / RFU RHOB (11743442_s_at) / Fold change /veh RHOB (11743442_s_at) / RFU RGS16 (11720943_a_at) / Fold change /veh RGS16 (11720943_a_at) / RFU RGS16 (11720944_at) / Fold change /veh RGS16 (11720944_at) / RFU, VPS4B / Fold change vs veh, VPS4B / RFU, CREB1 / Fold change vs veh, CREB1 / RFU, DNAJC13 / Fold change vs veh, DNAJC13 / RFU, GNAQ / Fold change vs veh, GNAQ / RFU, CDK5R1 / Fold change vs veh, CDK5R1 / RFU, ZRANB3 / Fold change vs veh, ZRANB3 / RFU, CUL4A / Fold change vs veh, CUL4A / RFU, CCNY / Fold change vs veh, CCNY / RFU, UFL1 / Fold change vs veh, UFL1 / RFU, COG3 / Fold change vs veh, COG3 / RFU, DIAPH2 / Fold change vs veh, DIAPH2 / RFU, SKA2 / Fold change vs veh, SKA2 / RFU, AFF3 / Fold change vs veh, AFF3 / RFU, LMF1 / Fold change vs veh, LMF1 / RFU, IPO11 / Fold change vs veh, IPO11 / RFU, DFFB / Fold change vs veh, DFFB / RFU, FOXP1 / Fold change vs veh, FOXP1 / RFU, CARD8 / Fold change vs veh, CARD8 / RFU, STRN3 / Fold change vs veh, STRN3 / RFU, ADK / Fold change vs veh, ADK / RFU, RASSF2 / Fold change vs veh, RASSF2 / RFU, WIPF1 / Fold change vs veh, WIPF1 / RFU, LARP1B / Fold change vs veh, LARP1B / RFU, RASA1 / Fold change vs veh, RASA1 / RFU, RB1 / Fold change vs veh, RB1 / RFU, PPFIA1 / Fold change vs veh, PPFIA1 / RFU, MAT2A / Fold change vs veh, MAT2A / RFU, CCT5 / Fold change vs veh, CCT5 / RFU, WDR92 / Fold change vs veh, WDR92 / RFU, CUX1 / Fold change vs veh, CUX1 / RFU, TTC7A / Fold change vs veh, TTC7A / RFU, TMEM135 / Fold change vs veh, TMEM135 / RFU, DEPTOR / Fold change vs veh, DEPTOR / RFU, CPM / Fold change vs veh, CPM / RFU, DNAJB6 / Fold change vs veh, DNAJB6 / RFU, CACNA2D3 / Fold change vs veh, CACNA2D3 / RFU, DTX4 / Fold change vs veh, DTX4 / RFU, TFCP2 / Fold change vs veh, TFCP2 / RFU, GMCL1 /// GMCL1P1 / Fold change vs veh, GMCL1 /// GMCL1P1 / RFU, AEBP2 / Fold change vs veh, AEBP2 / RFU, SNHG1 /// SNORD22 /// SNORD25 /// SNORD26 /// SNORD27 /// SNORD28 /// SNORD29 /// SNORD31 / Fold change vs veh, SNHG1 /// SNORD22 /// SNORD25 /// SNORD26 /// SNORD27 /// SNORD28 /// SNORD29 /// SNORD31 / Fold change (Aza/veh), C12orf56 (ProbeSet 11735607_a_at) / Fold change (ACY-1035/veh), C12orf56 (ProbeSet 11735607_a_at) / Fold change (Aza/veh), FGFR1OP (ProbeSet 11751329_s_at) / Fold change (ACY-1035/veh), FGFR1OP (ProbeSet 11751329_s_at) / Fold change (Aza/veh), VPS36 (ProbeSet 11739960_a_at) / Fold change (ACY-1035/veh), VPS36 (ProbeSet 11739960_a_at) / RFU SYPL1 (11715823_x_at) / Fold change /veh SYPL1 (11715823_x_at) / RFU IGFBP7 (11715501_s_at) / Fold change /veh IGFBP7 (11715501_s_at) / RFU REEP3 (11722064_at) / Fold change /veh REEP3 (11722064_at) / RFU IGLL1 (11728026_x_at) / Fold change /veh IGLL1 (11728026_x_at): dose or concentration left out as unconfirmed. The following applies: MV-4-11 cells, 48 hours.

On to `Nc1ccc(-c2cccs2)cc1NC(=O)c1ccc2c(c1)cc(C1CC1)n2CCN1CCOCC1` [ACY-1035], for which the “RFU SOX15 (11748057_x_at)” value is 11.14 RFU.

Source of the values: article PMC5218480 (PLoS ONE, 2017).
